Data as given in ChEMBL document CHEMBL1122316, “Different receptor sites mediate opioid agonism and antagonism” (J Med Chem, 1983).

Experiments:
[1] = Compound was tested for ability to protect against the irreversible antagonism of morphine''s effects by beta-FNA in guinea pig ileum at 1 uM concentration; format: functional
[2] = target: Opioid receptors; mu/kappa/delta (Homo sapiens, UniProt P41145+P41143+P35372); assay: Evaluated the ability to protect against the irreversible antagonism of morphines effects by beta-FNA in guinea pig ileal longitudinal muscle.; format: functional, tissue-based, Cavia porcellus, Muscle tissue
[3] = Compound was tested for ability to protect against the irreversible antagonism of morphine''s effects by beta-FNA in guinea pig ileum at 10 nM concentration, ratio is IC50 after treatment/control IC50; format: functional
[4] = Compound was tested for ability to protect against the irreversible antagonism of morphine''s effects by beta-FNA in guinea pig ileum at 200 nM concentration; format: functional
[5] = Compound was evaluated for equilibrium constant, Ke; format: ADME
[6] = Compound was tested for ability to protect against the irreversible antagonism of morphine''s effects by beta-FNA in guinea pig ileum at 2 nM concentration; format: functional
[7] = Compound was tested for ability to protect against the irreversible antagonism of morphine''s effects by beta-FNA in guinea pig ileum at 20 nM concentration; format: functional
[8] = Effect of protecte expressed as morphine IC50 ratio (IC50 after treatment/control IC50) at 200 nM concentration; format: functional

SMILES	Ratio [1]	IC50 [2] [nM]	Ratio [3]	Ratio [4]	Ke [5]	Ratio [6]	Ratio [7]	Ratio [8]
COC(=O)/C=C/C(=O)N[C@@H]1CC[C@@]2(O)C3Cc4ccc(O)c5c4C2(CCN3C)C1O5 (stereo partly specified)	5.2	22						
CCOc1ccc2c(c1)C1(C)CCN(CC3CC3)C(C2=O)C1C (stereo unspecified) [ETHYLKETAZOCINE]		0.6	4.6					
C=CCN1CC[C@]23c4c5ccc(O)c4O[C@H]2[C@@H](O)C=C[C@H]3[C@H]1C5 [NALORPHINE]	1.4	28		1.9	4.5			
C=CCN1CC[C@]23c4c5ccc(O)c4O[C@H]2C(=O)CC[C@@]3(O)[C@H]1C5 [NALOXONE]					1.2	3.4	1.9	1.1
O=C1CC[C@@]2(O)[C@H]3Cc4ccc(O)c5c4[C@@]2(CCN3CC2CC2)[C@H]1O5 [NALTREXONE]					0.38	2.4	1	1
